Experimental findings from patent publication US8920775B2, “Loading technique for preparing radionuclide containing nanoparticles” (Technical University of Denmark, priority 2009, dated 2014) are described below.

Data set [1] in a line: In vivo PET/CT biodistribution and blood concentration-time profile. More on the design: species or system NMRI nude mice. The following applies: i.v., mice, PET ROI on left ventricle. The protocol: Human colon adenocarcinoma (HT29) tumor cells (2×10^6 cells) were inoculated in the left and right flank of female NMRI (Naval Medical Research Institute) nude mice and allowed to grow 4 weeks in the mice to establish the malignant solid tumor. ^64Cu-liposomes for in vivo studies were prepared as described above and consisted of DSPC/CHOL/DSPE-PEG-2000 in the molar ratio 55:40:5 and contained the chelating agent (DOTA) in a concentration of 10 mM, and at a pH of 4.0 in the interior of the liposomes. […]
After i.v. administration of ^64Cu-liposome or ^64Cu-DOTA the animals were subject to micro-PET/CT imaging at different time points: 1, 4, 12 and 24 h. With PET imaging the amount of radioactivity specifically sequestered in a region of interest (ROI) on an image can be calculated allowing direct quantitative determinations based on differences in signal intensity. After PET- and CT images were reconstructed the images were fused with Inveon Software (Siemens), and PET data were analyzed by defining ROIs on selected tissues. PET values are expressed as mean Becquerel ml^−1 (Bq ml^−1), and ROIs were drawn manually over each organ of interest. […]
FIG. 11 is a time-activity curve (TAC) illustrating the blood concentration-time pro-file of ^64Cu-liposome and ^64Cu-DOTA. […] The total injected activity dose was measured by drawing one ROI around the animal 4 min post-injection. […]

Data set [2] in a line: ITC: ligand exchange of Cu(II) between 2HQ and chelates (Examples III, Table 2).
Protocol: Isothermal titration calorimetry (ITC) measurements were used to obtain the equilibrium constant (K, also referred to as the exchange constant) of the ligand exchange between the ionophore and the agent-entrapping compound, here a chelator. […] The ligand exchange was monitored by the heat of reaction from each injection in the ITC experiment as determined by peak integration. The ligand exchange constant (K) was determined by fitting the heat of reaction. The binding isotherm is defined by the equilibrium: Cu(2HQ)2+chelate ? Cu(chelate)+2(2HQ) (1)
The ITC measurements were carried out at 25° C. and 50° C. using isothermal titration calorimetry (iTC200, Micro-Cal, GE). The instrument was electrically calibrated by means of a standard electric pulse as recommended by the manufacturer. A 40 μL syringe was used for the titration, mixing was effected by stirring the syringe at 1000 rpm during equilibration and experiments. Typically, 20 injections of 2 μL each were performed with a 150 s interval between injections in a single titration. The reference cell of the calorimeter filled with water acts as a thermal reference to the sample cell. […] All solutions were degassed before titrations to reduce noise.
The ligand exchange constant (K) and the ligand exchange enthalpy (ΔH) are determined by as fitting parameters using a binding isotherm based on reaction scheme (1).
Data set [3] can be described thus: ITC: extraction of Cu(II) from 2-hydroxyquinoline by DOTA (Examples I). It is filed as binding. The following applies: Milli-Q water pH 7.4, 25° C. The protocol: Isothermal titration calorimetry (ITC) measurements are designed to obtain primarily the enthalpy of each complex formation and their stoichiometries. The heats of each reaction are determined by integration of the peaks observed. After the contribution from the heat of dilution of each injection is subtracted, the heat is plotted against the molar ratio of the measured components. The binding constant (Ka, interchangeably referred to as the ligand exchange constant, K), enthalpy of binding) (ΔH^0), and stoichiometry (n) of the formation of complex are determined by fitting the binding isotherm against the binding equation using an independent binding model.
The exchange of 2-hydroxyquinoline with DOTA are shown as heat spike plots (A) and integrated heat plots (B). Experimental conditions: 0.5 mM Cu(2-hydroxyquinoine)2 is titrated with 10-μL injections of 5 mM DOTA. All solutions were prepared in Milli-Q water at pH=7.4.

Data set [4] in a line: ITC: ligand exchange of 2HQ with DOTA complexed to Cu(II) (Examples II). The class given is binding.

Regarding `O=C([O-])CN1CCN(CC(=O)[O-])CCN(CC(=O)O)CCN(CC(=O)O)CC1.[64Cu+2]` [^64Cu-DOTA], the blood clearance result in data set [1] is on record as “cleared rapidly after administration through renal filtration”.
With `C1CNCCNCCNCCN1` [Cyclen, 1,4,7,10-tetraazacyclododecane], in data set [2] (pH 5.9 at 25° C.), the “Ligand exchange constant (K), exchange of Cu(II) from 2HQ to chelate” value (from here on “Ligand exchange constant (K), exchange”) is reported as “^” and the “ligand exchange enthalpy (ΔH)” value was “^”. Further, in data set [2] (pH 5.9 at 50° C.), the “Ligand exchange constant (K), exchange” value is reported as 1.4 × 10^−3 and the “ligand exchange enthalpy (ΔH)” value is -5.5 kcal/mol.
Turning to `O=C(O)CN1CCCN(CC(=O)O)CCN(CC(=O)O)CCCN(CC(=O)O)CC1` [TETA, 1,4,8,11-tetraazacyclotetradecane-1,4,8,11-tetraacetic acid], the “Ligand exchange constant (K), exchange” value in data set [2] (pH 4.0 at 25° C.) is recorded as 1.2 × 10^−4; in data set [2] (pH 5.9 at 25° C.) it was 3.0 × 10^−3; in data set [2] (pH 5.9 at 50° C.), 2.8 × 10^−2. Further, the “ligand exchange enthalpy (ΔH)” value in data set [2] (pH 4.0 at 25° C.) was 0.5 kcal/mol; in data set [2] (pH 5.9 at 25° C.) it was -4.9 kcal/mol; in data set [2] (pH 5.9 at 50° C.) it was -4.7 kcal/mol.
For the compound `O=P(O)(O)CN1CCN(CP(=O)(O)O)CCN(CP(=O)(O)O)CCN(CP(=O)(O)O)CC1` [DOTP, 1,4,7,10-tetraazacyclododecane-1,4,7,10-tetra(methanephosphonic acid)], in data set [2] (pH 4.0 at 25° C.), the “Ligand exchange constant (K), exchange” value was 2.5 × 10^−3 and the “ligand exchange enthalpy (ΔH)” value stood at 2.4 kcal/mol. Moreover, in data set [2] (pH 4.0 at 50° C.), the “Ligand exchange constant (K), exchange” value is given as 2.9 × 10^−3 and the “ligand exchange enthalpy (ΔH)” value was determined as 3.4 kcal/mol.
For the compound `O=C(O)CN1CCN(CC(=O)O)CCN(CC(=O)O)CCN(CC(=O)O)CC1` [DOTA, 1,4,7,10-tetraazacyclododecane-1,4,7,10-tetraacetic acid], the “binding affinity to Cu(II) compared with 2-hydroxyquinoline” value in data set [3] is on record as “much higher binding affinity to Cu(II) than 2-hydroxyquinoline”. The “exchange constant, K (Cu(2HQ)2 + DOTA)” value in data set [4] (acetate buffer at pH 4.0, 25° C.) is reported as “(1.0±0.3)·10^−2”; in data set [4] (pH 5.9 in MES buffer, 25° C.) it was “(5.2±1.6)·10^−4”. In addition, the “Ligand exchange constant (K), exchange” value is recorded as 1.3 × 10^−2 in data set [2] (pH 4.0 at 25° C.), 8.7 × 10^−3 in data set [2] (pH 4.0 at 50° C.), 6.1 × 10^−4 in data set [2] (pH 5.9 at 25° C.) and 1.0 × 10^−3 in data set [2] (pH 5.9 at 50° C.). Moreover, the “ligand exchange enthalpy (ΔH)” value in data set [2] (pH 4.0 at 25° C.) is 3.8 kcal/mol; in data set [2] (pH 4.0 at 50° C.) it was 4.0 kcal/mol; in data set [2] (pH 5.9 at 25° C.), -8.0 kcal/mol; in data set [2] (pH 5.9 at 50° C.), -6.3 kcal/mol.
